From patent publication US12263248B2, “Compounds and compositions for intracellular delivery of therapeutic agents” (ModernaTX, Inc., priority 2018, dated 2025)

Experiments:
[1] = Particle size and polydispersity index of nanoparticle compositions (Zetasizer Nano ZS); type: physicochemical; settings: Table 1A; for Size (nm): lipid:DSPC:cholesterol:PEG-DMG 50:10:38.5:1.5 mol %
Summary of the method: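 Zetasizer Nano ZS; samples in 1×PBS; read-out: particle size plus polydispersity index.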

[2] = Encapsulation efficiency of RNA (QUANT-IT RIBOGREEN RNA assay); type: physicochemical; settings: Table 1A
Summary of the method: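 RiboGreen fluorescence (ex ~480, em ~520 nm) compared between intact samples and Triton X-100-lysed samples after 15 min at 37 °C in TE buffer, pH 7.5. Percent free RNA is the blank-corrected intact/disrupted ratio.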

[3] = Apparent (surface) pKa of the LNP formulation (TNS assay); type: physicochemical; settings: for pKa: Table 1A
Summary of the method: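 Fluorescence of TNS probe added to LNP samples (mRNA 0.04 mg/mL) was read across 21 buffers of pH about 3-12, triplicate per pH. The inflection point of the sigmoidal fluorescence-vs-pH curve, […], gives apparent pKa; method validated in 1× PBS and Tris/sucrose buffer.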

luciferase (Luc) mRNA [4] = test: Luc expression, whole body bioluminescence after intravenous administration to mice; type: in vivo; settings: for Total Flux 3 hours / Total Flux 6 hours / Total Flux 24 hours / total flux at 3 hours: mice, i.v., 0.5 mg/kg; for Total Flux 3 hours / Total Flux 6 hours / Total Flux 24 hours: Luc mRNA; for Fold increase in total body Luc Flux relative to MC3 at 6 h: Table 3A, i.v. administration; for total flux at 3 hours: comparison in words
Summary of the method: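 Bioluminescence, read as region-of-interest total flux at 3, 6 and 24 h, followed a single 0.5 mg/kg intravenous dose of Luc mRNA-loaded nanoparticles in mice (n=6). Luciferin substrate (200 μL, 15 mg/mL in PBS) was injected intraperitoneally into CD-1 mice 15 minutes ahead of each imaging point.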

luciferase (Luc) mRNA [5] = test: Luc expression in liver, lung, spleen and femur 6 hours after intravenous administration; type: in vivo; settings: mice, 0.5 mpk; for Total Flux Femur / Total Flux Liver / Total Flux Lung / Total Flux Spleen: intravenous
Summary of the method: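 LNP-formulated mRNA given IV to mice (n=3) at 0.5 mpk; at 6 h, bioluminescence imaged ex vivo 15 min after IP D-luciferin (15 mg/mL, 200 μL), organs imaged within 25 min. Values are total flux by region of interest.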

IL-6, IP-10 = test: Cytokine induction in mice upon intravenous administration; type: in vivo; parameters: Cytokine induction IL-6 / Cytokine induction IP-10: unit not given here; settings: 0.5 mpk, 6 hours; for IP-10 induction / IL-6 induction: i.v., in words; for Cytokine induction IL-6 / Cytokine induction IP-10: intravenous
Excerpt: The introduction of foreign material into a mammalian body induces an innate immune response that promotes cytokine production. Such immune responses to, for example, nanoparticle compositions including therapeutic and/or prophylactics, are undesirable. The induction of certain cytokines is thus measured to evaluate the […] of nanoparticle compositions. The concentrations of various cytokines in mice upon intravenous administration of nanoparticle compositions presented in Table 1A at a dosage of 0.5 mpk was measured at 6 hours. The standard MC3 formulation and a PBS control were also tested. As is evident in Table 7, IL-6 induction was highest for compositions including Compounds 1, 3, 9, 19, and 26, while IP-10 induction was highest for compositions including Compounds 3, 4, 7, 20, and 26. IL-6 induction was lowest for compositions including Compounds 4, 11, 12, and 28. IP-10 induction was lowest for compositions including Compounds 10, 11, 12, 13, 15, 17, and 18.

luciferase (Luc) mRNA [6] = test: Luc expression (total flux) after intramuscular administration; type: in vivo, mice; settings: for Total flux, 0.001 mpk Dose / Total flux, 0.01 mpk Dose: 6 hours after intramuscular administration, Luc mRNA and H10 mRNA
Method: In order to monitor how effectively various nanoparticle compositions deliver therapeutic and/or prophylactics to targeted cells, different nanoparticle compositions including a particular therapeutic and/or prophylactic (for example, a modified or naturally occurring RNA such as an mRNA) are prepared and administered to rodent populations. Mice are intravenously, intramuscularly, intraarterially, or intratumorally administered a single dose including a nanoparticle composition with a formulation such as those provided in Example 3. In some instances, mice may be made to inhale doses. Dose sizes may range from 0.001 mg/kg to 10 mg/kg, where 10 mg/kg describes a dose including 10 mg of a therapeutic and/or prophylactic in a nanoparticle composition for each 1 kg of body mass of the mouse. A control composition including PBS may also be employed.
Sample formulations including both modified luciferase (Luc) mRNA and H10 mRNA were prepared and administered intramuscularly and the resulting expression and immunogenicity were evaluated simultaneously. Formulations including compounds according to Formula (I), (IA), (IB), (II), (IIa), (IIb), (IIc), (IId), (IIe), (IIf), (IIg), (III), (VI), (VI-a), (VII), (VIII), (VIIa), (VIIIa), (VIIIb), (VIIb-1), (VIIb-2), (VIIb-3), (VIIc), (VIId), (VIIIc), or (VIIId) were prepared and administered at doses of 0.001 and 0.01 mpk (e.g., doses of 0.0005 mpk of a formulation including Luc mRNA and a formulation including H10 mRNA or doses of 0.005 mpk of a formulation including Luc mRNA and a formulation including H10 mRNA).
Sample formulations including modified luciferase (Luc) mRNA prepared and administered intramuscularly and the resulting expression and immunogenicity were evaluated simultaneously. Formulations including compounds according to Formula (I), (IA), (IB), (II), (IIa), (IIb), (IIc), (IId), (IIe), (IIf), (IIg), (III), (VI), (VI-a), (VII), (VIII), (VIIa), (VIIIa), (VIIIb), (VIIb-1), (VIIb-2), (VIIb-3), (VIIc), (VIId), (VIIIc), or (VIIId) were prepared and administered at dose of and 0.01 mpk.

Row | PDI [1] | Size (nm) [1] | EE (%) [2] | pKa [3] | IP-10 induction (IL-6, IP-10) | Cytokine induction IL-6 (IL-6, IP-10) | Cytokine induction IP-10 (IL-6, IP-10) | SMILES | Total Flux 3 hours (luciferase (Luc) mRNA [4]) | Total Flux 6 hours (luciferase (Luc) mRNA [4]) | Total Flux 24 hours (luciferase (Luc) mRNA [4]) | Total Flux Liver (luciferase (Luc) mRNA [5]) | Total Flux Lung (luciferase (Luc) mRNA [5]) | Total Flux Spleen (luciferase (Luc) mRNA [5]) | Fold increase in total body Luc Flux relative to MC3 at 6 h (luciferase (Luc) mRNA [4]) | Total flux, 0.001 mpk Dose (luciferase (Luc) mRNA [6]) | Total flux, 0.01 mpk Dose (luciferase (Luc) mRNA [6]) | further results
1 | 0.18 | 102.9 nm | 89.60% | 6.09 | lowest | 88.81 | 138.16 | CCCCCCCCCOC(=O)CCCCCCCN(CCCCCCCC(=O)OC(CCCCCCCC)CCCCCCCC)CC(C)O (stereo not shown) [Compound 10, Heptadecan-9-yl 8-((2-hydroxypropyl)(8-(nonyloxy)-8-oxooctyl)amino) octanoate] | 6.03E+08 | 2.37E+09 | 4.04E+07 | 3.22E+08 | 8.85E+05 | 8.17E+06 | – | – | – | Total Flux Femur (luciferase (Luc) mRNA [5]): 5.09E+05
2 | 0.21 | 120.5 nm | 95.10% | 6.33 | highest | 13.1375 | 2253.09 | CCCCCCCCC(CCCCCCCC)OC(=O)CCCCCCCN(CCO)CCCCCCCC [Compound 4, Heptadecan-9-yl 8-((2-hydroxyethyl)(octyl)amino)octanoate] | 1.37E+11 | 6.01E+10 | 1.13E+09 | 5.26E+09 | 6.22E+07 | 4.09E+08 | 1.31 | – | – | total flux at 3 hours (luciferase (Luc) mRNA [4]): highest; Flux in the spleen (luciferase (Luc) mRNA [5]; i.v., in words): highest; IL-6 induction (IL-6, IP-10): lowest
3 | 0.13 | 129.6 nm | 92.47% | 5.97 | lowest | 0.14 | 44.84 | CCCCCCCCCOC(=O)CCCCCCCN(CCCCCCCC(=O)OC(CCCCCCCC)CCCCCCCC)C[C@@H](C)O [Compound 11, Heptadecan-9-yl (R)-8-((2-hydroxypropyl)(8-(nonyloxy)-8-oxooctyl)amino)octanoate] | 3.38E+09 | 7.11E+09 | 1.15E+08 | 8.03E+08 | 1.35E+07 | 1.04E+08 | – | – | – | IL-6 induction (IL-6, IP-10): lowest
4 | 0.11 | 68.1 nm | 98.47% | 6.572 | – | – | – | CCCCCCCCCOC(=O)CCCCCCCN(CCCCCCCC(=O)OC(CCCCCCCC)CCCCCCCC)C(CO)CO [Compound 156, Heptadecan-9-yl 8-((1,3-dihydroxypropan-2-yl)(8-(nonyloxy)-8-oxooctyl)amino)octanoate] | 5.68E+09 | 1.03E+10 | 6.53E+07 | 6.51E+08 | 1.92E+06 | 1.82E+07 | – | – | – | App. pKa ([3]; Table 3F): 6.57; Lipid/MC3 AUC (luciferase (Luc) mRNA [4]; Table 3D, intravenous): 0.61; AUC (p/s * h) (luciferase (Luc) mRNA [4]; Table 3D, intravenous, Luc): 1.170E+011 p/s * h; AUC (p/s * h) (luciferase (Luc) mRNA [6]; Table 3H, intramuscular, Luc): 3.92E+07 p/s * h; Lipid/MC3 AUC (luciferase (Luc) mRNA [6]; Table 3H, intramuscular, Luc): 0.07
5 | 0.22 | 80.2 nm | 96.00% | 6.21 | – | 90.54 | 976.50 | CCCCCCCCCOC(=O)CCCCCCCN(CCCCCCCC(=O)OC(CCCCCCCC)CCCCCCCC)C1CCCCC1O (stereo not shown) [Compound 22, Heptadecan-9-yl 8-((2-hydroxycyclohexyl)(8-(nonyloxy)-8-oxooctyl)amino)octanoate] | 6.57E+08 | 3.89E+08 | 2.73E+07 | 4.00E+07 | 4.73E+05 | 1.57E+06 | – | – | – | Total Flux Femur (luciferase (Luc) mRNA [5]): 1.16E+05

Row | SMILES | PDI [1] | Size (nm) [1] | EE (%) [2] | pKa [3] | IP-10 induction (IL-6, IP-10) | Cytokine induction IL-6 (IL-6, IP-10) | Cytokine induction IP-10 (IL-6, IP-10) | Total Flux 3 hours (luciferase (Luc) mRNA [4]) | Total Flux 6 hours (luciferase (Luc) mRNA [4]) | Total Flux 24 hours (luciferase (Luc) mRNA [4]) | Total Flux Liver (luciferase (Luc) mRNA [5]) | Total Flux Lung (luciferase (Luc) mRNA [5]) | Total Flux Spleen (luciferase (Luc) mRNA [5]) | Fold increase in total body Luc Flux relative to MC3 at 6 h (luciferase (Luc) mRNA [4]) | Total flux, 0.001 mpk Dose (luciferase (Luc) mRNA [6]) | Total flux, 0.01 mpk Dose (luciferase (Luc) mRNA [6]) | further results
6 | CCCCCCCCCOC(=O)CCCCCCCN(CCO)CCCCCCCC(=O)OC(CC)CCCCCCCC (stereo not shown) [Compound 35, nonyl 8-((2-hydroxyethyl)(8-oxo-8-(undecan-3-yloxy)octyl)amino) octanoate] | 0.18 | 151.1 nm | 90.82% | 6.85 | – | – | – | 9.82E+08 | 1.24E+09 | 5.09E+07 | 1.63E+08 | 2.06E+06 | 1.23E+08 | 0.028 | 2.45E+06 p/s | 8.12E+06 p/s | –
7 | CCCCCCCCCN(CCCCCCCC(=O)OC(CCCCCCCC)CCCCCCCC)CCCn1ccnc1 [Compound 8, Heptadecan-9-yl 8-((3-(1H-imidazol-1-yl)propyl)(nonyl)amino)octanoate] | 0.15 | 121.0 nm | 95.8% | 6.64 | – | – | – | 7.43E+09 | 6.71E+09 | 7.84E+08 | 7.87E+08 | 4.06E+06 | 1.51E+08 | – | 7.81E+05 p/s | 3.32E+06 p/s | –
8 | CCCCCCCCCOC(=O)CCCCCCCN(CCO)CCCCCCCC(=O)OC(CCCCCC)CCCCCCCC (stereo not shown) [Compound 32, nonyl 8-((2-hydroxyethyl)(8-oxo-8-(pentadecan-7-yloxy)octyl)amino) octanoate] | 0.18 | 105.6 nm | 94.87% | 6.75 | – | – | – | 8.65E+10 | 6.08E+10 | 1.92E+09 | 8.52E+09 | 1.16E+07 | 1.70E+08 | 1.39 | 7.37E+05 p/s | 1.03E+07 p/s | total flux at 3 hours (luciferase (Luc) mRNA [4]): highest
